Experimental data: patent US20220232834A1, “PSEUDOMONAS CHLORORAPHIS SPECIES AND ITS USE IN THE CONTROL OF DISEASES CAUSED BY BACTERIA AND FUNGI” (T3 BIOSCIENCE, LLC, priority 2021, published 2022)
Converted amounts (≈) assume the structure as drawn. Like-named read-outs stand apart in the source and are kept apart here. Marks after values point to notes of the source that are not given here.

Legend:
[1] = system: Phytophthora infestans 88069; assay: microbe, parasite or virus in culture; format: cell-based
[2] = system: Ralstonia solanacearum K60; assay: microbe, parasite or virus in culture; format: cell-based
[3] = system: Bacillus subtilis subsp. spizizenii ATCC 6633; details: Ref 6; producer Pseudomonas aurantiaca; cited from earlier work
Pseudomonas sevastanoi = details: Ref 1; producer Pseudomonas sp. Ki19; cited from earlier work
Botrytis cinerea CA17 = assay: microbe, parasite or virus in culture; format: cell-based
[4] = system: Streptococcus mutans ATCC 25175; details: Ref 6; producer Pseudomonas aurantiaca; cited from earlier work
[5] = system: Pseudomonas syringae. pv. tomato PT30; assay: microbe, parasite or virus in culture; format: cell-based
Drechslera sorokiniana = details: Ref 1; producer Pseudomonas sp. Ki19; cited from earlier work
[6] = system: Clavibacter michiganensis subsp. michiganensis 382; assay: MIC value study of 1214-CHY4 metabolites; format: cell-based
[7] = system: Staphylococcus aureus ATCC 12600; details: Ref 6; producer Pseudomonas aurantiaca; cited from earlier work
[8] = system: Staphylococcus epidermidis ATCC 14990; details: Ref 6; producer Pseudomonas aurantiaca; cited from earlier work
[9] = system: Xanthomonas euvesicatoria 75-3; assay: microbe, parasite or virus in culture; format: cell-based; details: 753
Staphyllococcus aureus = details: Ref 1; producer Pseudomonas sp. Ki19; cited from earlier work
[10] = system: Enterococcus hirae ATCC 8043; details: Ref 6; producer Pseudomonas aurantiaca; cited from earlier work
Candida albicans = details: Ref 1; producer Pseudomonas sp. Ki19; cited from earlier work
Aspergillus fumigatus = details: Ref 1; producer Pseudomonas sp. Ki19; cited from earlier work
[11] = Ref 5, producer Pseudomonas sp. DC165, cited from earlier work
[12] = system: Venturia inaequalis VI19-032; assay: microbe, parasite or virus in culture; format: cell-based; details: VI19032
Fusarium culmorum = details: Ref 1; producer Pseudomonas sp. Ki19; cited from earlier work
Botrytis cinerea = details: cited from earlier work
Phytophthora infestans = details: cited from earlier work
Seiridium cardinale = details: Ref 4; producer P. chlororaphis subsp. aureofaciens M71; cited from earlier work
Vibrio anguillarum C312 = details: Ref 5; producer P. aeruginosa PA31x; cited from earlier work
[13] = system: Alternaria alternata, Phytophthora sp., Fusarium solani, F. oxysporum; details: Ref 12; producer P. chlororaphis MCC2693; cited from earlier work
[14] = system: Gaeumannomyces graminis var. tritici.; details: Ref 6; producer P. fluorescens 2-79; cited from earlier work
Fusarium oxysporum = details: cited from earlier work
[15] = system: 22 bacteria and fungi, including Gram-positive bacteria mycobacteria; details: Ref 3-4; producer Pseudomonas sp. B-9004; cited from earlier work
Staphylococcus aureus = details: Ref 3-4; producer Pseudomonas sp. B-9004; cited from earlier work
[16] = system: Pseudomonas syringae. pv. lachrymans 1188-1; assay: microbe, parasite or virus in culture; format: cell-based; details: read-out: Diameter of Growth Inhibition Zone
Erwinia amylovora DM1 = assay: microbe, parasite or virus in culture; format: cell-based; details: DM1, read-out: Diameter of Growth Inhibition Zone
[17] = system: Xanthomonas axonopodis pv. citri N40-SO5; assay: plate diffusion assay; format: cell-based; details: read-out: Diameter of Growth Inhibition Zone
Erwinia amylovora 1189 = assay: microbe, parasite or virus in culture; format: cell-based; details: Erwinia amylovora, 1189, read-out: Diameter of Growth Inhibition Zone
Dickeya dadantii 3937 = assay: microbe, parasite or virus in culture; format: cell-based; details: Dickeya dadantii, 3937, read-out: Diameter of Growth Inhibition Zone
[18] = system: Pseudomonas savastanoi pv. savastanoi; assay: microbe, parasite or virus in culture; format: cell-based; details: read-out: Diameter of Growth Inhibition Zone
[19] = system: Ralstonia solanacearum Pss4; assay: microbe, parasite or virus in culture; format: cell-based; details: PSS4, read-out: Diameter of Growth Inhibition Zone
[20] = system: Ralstonia solanacearum K60; assay: microbe, parasite or virus in culture; format: cell-based; details: K60, read-out: Diameter of Growth Inhibition Zone
[21] = system: Xanthomonas arboricola pv. juglandis 219; assay: microbe, parasite or virus in culture; format: cell-based; details: read-out: Diameter of Growth Inhibition Zone
[22] = system: Pectobacterium parmentieri UPP163 936; assay: microbe, parasite or virus in culture; format: cell-based; details: UPP163936, read-out: Diameter of Growth Inhibition Zone
[23] = system: Pectobacterium carotovorum subsp. carotovorum wpp14 945; assay: microbe, parasite or virus in culture; format: cell-based; details: read-out: Diameter of Growth Inhibition Zone
[24] = system: Pseudomonas syringae. pv. tomato PT30; assay: microbe, parasite or virus in culture; format: cell-based; details: read-out: Diameter of Growth Inhibition Zone
[25] = system: Pseudomonas syringae. pv syringae 7046; assay: microbe, parasite or virus in culture; format: cell-based; details: read-out: Diameter of Growth Inhibition Zone
Erwinia amylovora 88 = assay: microbe, parasite or virus in culture; format: cell-based; details: Erwinia amylovora, 88, read-out: Diameter of Growth Inhibition Zone
Erwinia amylovora 110 = assay: microbe, parasite or virus in culture; format: cell-based; details: Erwinia amylovora, 110, read-out: Diameter of Growth Inhibition Zone
[26] = system: Pectobacterium atrosepticum 942; assay: microbe, parasite or virus in culture; format: cell-based; details: Pectobacterium atrosepticum, 942, read-out: Diameter of Growth Inhibition Zone
[27] = system: Xanthomonas arboricola pv. juglandis 417; assay: microbe, parasite or virus in culture; format: cell-based; details: read-out: Diameter of Growth Inhibition Zone
[28] = system: Xanthomonas campestris pv. vesicatoria XV-16; assay: microbe, parasite or virus in culture; format: cell-based; details: read-out: Diameter of Growth Inhibition Zone
[29] = system: Xanthomonas axonopodis pv. citri-Miami XC2002-00010; assay: plate diffusion assay; format: cell-based; details: read-out: Diameter of Growth Inhibition Zone
Erwinia amylovora CA11 = assay: microbe, parasite or virus in culture; format: cell-based; details: CA11, read-out: Diameter of Growth Inhibition Zone
[30] = system: Pectobacterium carotovorum subsp brasillensis 944; assay: microbe, parasite or virus in culture; format: cell-based; details: read-out: Diameter of Growth Inhibition Zone
[31] = system: Xanthomonas campestris pv. pruni; assay: microbe, parasite or virus in culture; format: cell-based; details: read-out: Diameter of Growth Inhibition Zone
[32] = system: Clavibacter michiganensis subsp. michiganensis Cmm 0690; assay: plate diffusion assay; format: cell-based; details: 200 μg/mL, read-out: Diameter of Growth Inhibition Zone
[33] = system: Clavibacter michiganensis subsp. michiganensis Cmm 0317; assay: plate diffusion assay; format: cell-based; details: 200 μg/mL, read-out: Diameter of Growth Inhibition Zone
[34] = system: Clavibacter michiganensis subsp. michiganensis NCPPB382; assay: plate diffusion assay; format: cell-based; details: 200 μg/mL, read-out: Diameter of Growth Inhibition Zone

SMILES: CCCCCCc1c(O)cc(CCCCC)cc1O (single isomer, unassigned) [Peak 2, 2-hexyl-5-pentylbenzene-1,3-diol]
- MIC [1]: > 100 µg/mL
- MIC ([2]; Ralstonia solanacearum, K60): > 25000 µg/mL
- Activity (MIC values) [3]: ATCC 6633(4.2 μg/mL)
- Activity (MIC values) (Pseudomonas sevastanoi): Pseudomonas sevastanoi (50 μg/mL)
- MIC (Botrytis cinerea CA17): > 100 µg/mL
- Activity (MIC values) [4]: ATCC 25175(4.2 μg/mL)
- MIC [5]: 312 µg/mL (≈ 1180 µM)
- Activity (MIC values) (Drechslera sorokiniana): Drechslera sorokiniana (50 μg/mL)
- MIC [6]: 1.56^c μg/mL
- MIC ([6]; Clavibacter michiganensis): 1.56 µg/mL
- Activity (MIC values) [7]: ATCC 12600 (2.1 μg/mL)
- Activity (MIC values) [8]: ATCC 14990 (4.2 μg/mL)
- MIC [9]: 78 µg/mL (≈ 295 µM)
- Activity (MIC values) (Staphyllococcus aureus): Staphyllococcus aureus (7 μg/mL)
- Activity (MIC values) [10]: ATCC 8043 (4.2 μg/mL)
- Activity (MIC values) (Candida albicans): Candida albicans (50 μg/mL)
- Activity (MIC values) (Aspergillus fumigatus): Aspergillus fumigatus (50 μg/mL)
- Activity: free radical scavenging [11]: Free radical scavenging substances
- Activity: free radical scavenging ([11]; listed as Resorstatin): free radical scavenging substance
- MIC [12]: > 100 µg/mL
- Activity (MIC values) (Fusarium culmorum): Fusarium culmorum (50 μg/mL)

SMILES: CCCCCCCc1cc(O)c(CCCCCC)c(O)c1 (single isomer, unassigned) [Peak 3, 2-hexyl-5-heptylbenzene-1,3-diol]
- MIC [1]: > 100 µg/mL
- MIC ([2]; Ralstonia solanacearum, K60): > 25000 µg/mL
- Activity (MIC values) [3]: ATCC 6633(33.4 μg/mL)
- MIC (Botrytis cinerea CA17): > 100 µg/mL
- Activity (MIC values) [4]: ATCC 25175(8.4 μg/mL)
- MIC [5]: 156 µg/mL (≈ 533 µM)
- MIC ([6]; Clavibacter michiganensis): 0.78 µg/mL
- MIC ([6]; modified broth dilution (microdilution) method): 0.78^c μg/mL
- Activity (MIC values) [7]: ATCC 12600 (4.2 μg/mL)
- Activity (MIC values) [8]: ATCC 14990 (4.2 μg/mL)
- MIC [9]: 78 µg/mL (≈ 267 µM)
- Activity (MIC values) [10]: ATCC 8043 (8.4 μg/mL)
- MIC [12]: > 100 µg/mL

SMILES: O=C(O)c1cccc2nc3ccccc3nc12 (single isomer, unassigned) [Peak 4, phenazine-1-carboxylic acid]
- MIC [1]: 1.56 µg/mL (≈ 6.96 µM)
- Active Against (Botrytis cinerea; Ref 1, producer P. aeruginosa LV Strain): Botrytis cinerea
- reported to be effective against (Botrytis cinerea; Upadhyay and Srivastava, 2011): effective
- MIC ([2]; Ralstonia solanacearum, K60): 6.25 µg/mL (≈ 27.9 µM)
- MIC ([2]; agar dilution method): 6.25^b μg/mL
- MIC (Botrytis cinerea CA17): 62.5 µg/mL (≈ 279 µM)
- MIC [5]: 100 µg/mL (≈ 446 µM)
- MIC ([6]; Clavibacter michiganensis): 100 µg/mL
- Active Against (Phytophthora infestans; Ref 2, producer P. fluorescens LBUM636): Phytophthora infestans
- Active Against (Phytophthora infestans; Ref 3, producer P. fluorescens LBUM223): Phytophthora infestans
- Active Against (Seiridium cardinale): Seiridium cardinale
- Active Against (Vibrio anguillarum C312): Vibrio anguillarum C312
- MIC [9]: 100 µg/mL (≈ 446 µM)
- Active Against (order) [13]: Alternaria alternata > Phytophthora sp. >
- MIC [12]: 31.3 µg/mL (≈ 140 µM)
- Active Against [14]: Gaeumannomyces graminis var. tritici.
- Active Against (Fusarium oxysporum; Ref 7, producer P. fluorescens strain Psd): Fusarium oxysporum
- reported to be effective against (Fusarium oxysporum; Upadhyay and Srivastava, 2011): effective

SMILES: CCCCCCc1c(O)cc(CCC)cc1O [DB2073]
- Activity [15]: Active against 22 bacteria and fungi,
- Activity (MIC values) (Staphylococcus aureus): (25 μg/mL)

SMILES: [H]/N=C(/N)N[C@H]1[C@H](O)[C@@H](O)[C@H](O[C@@H]2O[C@@H](C)[C@](O)(C=O)[C@H]2O[C@@H]2O[C@@H](CO)[C@H](O)[C@@H](O)[C@@H]2NC)[C@@H](N/C(N)=N\[H])[C@@H]1O [Streptomycin]
- zone of inhibition at 200 µg/mL [16]: 6 mm
- zone of inhibition at 200 µg/mL (Erwinia amylovora DM1): 0 mm
- zone of inhibition at 200 µg/mL [17]: 22 mm
- zone of inhibition at 200 µg/mL (Erwinia amylovora 1189): 5 mm
- MIC ([2]; Ralstonia solanacearum, K60): 25 µg/mL (≈ 43 µM)
- zone of inhibition at 200 µg/mL (Dickeya dadantii 3937): 5 mm
- zone of inhibition at 200 µg/mL [18]: 6 mm
- zone of inhibition at 200 µg/mL [19]: 3 mm
- zone of inhibition at 200 µg/mL [20]: 3 mm
- MIC [5]: 3.13 µg/mL (≈ 5.38 µM)
- zone of inhibition at 200 µg/mL [21]: 0 mm
- MIC ([6]; Clavibacter michiganensis): 12.5 µg/mL
- zone of inhibition at 200 µg/mL [22]: 5 mm
- zone of inhibition at 200 µg/mL [23]: 0 mm
- zone of inhibition at 200 µg/mL [24]: 6 mm
- zone of inhibition at 200 µg/mL [25]: 5 mm
- zone of inhibition at 200 µg/mL (Erwinia amylovora 88): 0 mm
- zone of inhibition at 200 µg/mL (Erwinia amylovora 110): 5 mm
- MIC [9]: 50 µg/mL (≈ 86 µM)
- zone of inhibition at 200 µg/mL [26]: 0 mm
- zone of inhibition at 200 µg/mL [27]: 10 mm
- zone of inhibition at 200 µg/mL [28]: 10 mm
- zone of inhibition at 200 µg/mL [29]: 21 mm
- zone of inhibition at 200 µg/mL (Erwinia amylovora CA11): 0 mm
- zone of inhibition at 200 µg/mL [30]: 0 mm
- zone of inhibition at 200 µg/mL [31]: 0 mm

SMILES: CN[C@H](CC(C)C)C(=O)N[C@H]1C(=O)N[C@@H](CC(N)=O)C(=O)N[C@H]2C(=O)N[C@H]3C(=O)N[C@H](C(=O)N[C@H](C(=O)O)c4cc(O)cc(O)c4-c4cc3ccc4O)[C@H](O)c3ccc(c(Cl)c3)Oc3cc2cc(c3O[C@@H]2O[C@H](CO)[C@@H](O)[C@H](O)[C@H]2O[C@H]2C[C@](C)(N)[C@H](O)[C@H](C)O2)Oc2ccc(cc2Cl)[C@H]1O [Vancomycin, reference compound]
- MIC ([2]; Ralstonia solanacearum, K60): 100 µg/mL (≈ 69 µM)
- MIC [5]: 100 µg/mL (≈ 69 µM)
- MIC ([6]; Clavibacter michiganensis): 0.39 µg/mL
- MIC [9]: 50 µg/mL (≈ 34.5 µM)
- zone of inhibition at 200 µg/mL [32]: 12 mm
- zone of inhibition at 200 µg/mL [33]: 11 mm
- zone of inhibition at 200 µg/mL [34]: 13 mm
